Measurements: PMC7367873, “Dissecting the sequence determinants for dephosphorylation by the catalytic subunits of phosphatases PP1 and PP2A” (Nature Communications, 2020)

System: GFP-14-3-3β and its binding proteins
Assay: GFP-14-3-3β co-IP with LC-MS/MS label-free quantification, untreated versus PP1c-treated
Parameters: species or system human

number of proteins significantly dissociating from 14-3-3 (1 µM recombinant PP1c, 1 h at 30 °C, FDR 0.05, of 108 interacting proteins, three replicates): 56 proteins
Difference (log2), PP1 vs untreated (log2 difference, pairwise comparison PP1 vs untreated, label-free quantification, 3 replicates each): 5.428
number of dissociating proteins with at least one PP1c-regulated phosphorylation site (mapped onto phosphoproteomic dataset, of 56 proteins): 35 proteins
14-3-3-protein interactions disrupted (recombinant PP1c): 52%
Substance: PP1c: recombinant catalytic subunit of PP1
